Consider five compounds from ChEMBL document CHEMBL1201862, “PubChem BioAssay data set” (2004).

Structures are written as SMILES.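 Values below derive from 48-hour exposures of cells grown in 96-well plates, with endpoints linearly interpolated between the two concentrations bracketing the appropriate inhibition level. At the GI50, growth is halved.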 Activity calls are given as the source filed them. Rule as the data show it: active = GI50 up to about 1.1 µM and inactive = higher. Where only a bound is given, the exact number is not on record here.

Test systems include SF-539; SW-620; LOX IMVI; SF-295; MDA-MB-435; SNB-19; NCI-H522; K562; SNB-75; Hs-578T; EKVX; OVCAR-8; SK-OV-3; UACC-257; MCF7; DU-145; 786-0; Malme-3M; UACC-62; COLO 205.
Experiment in all cases: NCI-60 cell line screen, 48 h

Take `C=CCN1C(=O)/C(=C/c2ccc(C)cc2)N=C1SC/C=C/C`: the GI50 with SF-539 is 77.3 µM (inactive); in the assay on SW-620 it was 39.4 µM (inactive); with LOX IMVI, 19.6 µM (inactive); in the assay on SF-295 it was 36.8 µM (inactive); in the assay with MDA-MB-435, 34.4 µM (inactive); with SNB-19 it was 15.5 µM (inactive). The GI50 with NCI-H522 was 29 µM (inactive); in the assay on K562, 25.9 µM (inactive); in the assay on SNB-75, 17.8 µM (inactive); in the assay on Hs-578T, 21.8 µM (inactive); in the assay with EKVX it was 27 µM (inactive); with OVCAR-8, 30.1 µM (inactive). Besides, the GI50 in the assay on SK-OV-3 was > 100 µM (inactive); in the assay with UACC-257, 32.7 µM (inactive); in the assay with MCF7 it was 29.4 µM (inactive); in the assay on DU-145, 55.3 µM (inactive); in the assay on 786-0, 29.9 µM (inactive); in the assay with Malme-3M, 32.1 µM (inactive). In addition, the GI50 in the assay with UACC-62 is 39.5 µM (inactive); in the assay on COLO 205, 36.5 µM (inactive).

For the compound `CCOC(=O)C1=C(C)C(C(=O)OC)/C(=C/c2cccc3cccnc23)C1=O` (stereo not given), the GI50 in the assay with SF-539, in the assay on SW-620, in the assay with LOX IMVI, in the assay on SF-295, in the assay on MDA-MB-435 and in the assay on SNB-19 was > 10 µM (inactive) in each case. Moreover, the GI50 with NCI-H522, in the assay with K562, in the assay with SNB-75, in the assay on Hs-578T, in the assay on EKVX and in the assay with OVCAR-8 was > 10 µM (inactive) throughout. In addition, the GI50 was > 10 µM (inactive) with SK-OV-3; > 10 µM (inactive) with UACC-257; 4.76 µM (inactive) in the assay with MCF7; > 10 µM (inactive) in the assay on DU-145; > 10 µM (inactive) in the assay on 786-0; > 10 µM (inactive) in the assay on Malme-3M. Besides, the GI50 in the assay with UACC-62 and in the assay with COLO 205 was > 10 µM (inactive) in each case.

As for `O=C1c2c(O)cccc2C(C(=O)CCCCC(=O)C2c3cccc(O)c3C(=O)c3c(O)cccc32)c2cccc(O)c21`, the GI50 was 0.399 µM (active) with SF-539; 0.925 µM (active) with SW-620; 0.668 µM (active) in the assay on LOX IMVI; 0.469 µM (active) in the assay with SF-295; 0.809 µM (active) in the assay with MDA-MB-435; 0.288 µM (active) in the assay on SNB-19. The GI50 in the assay on NCI-H522 is 0.543 µM (active); with K562, 0.661 µM (active); with SNB-75, 0.948 µM (active); in the assay on Hs-578T it was 0.176 µM (active); in the assay with EKVX it was 0.596 µM (active); in the assay on OVCAR-8, 0.733 µM (active). Also, the GI50 in the assay on SK-OV-3 is 0.562 µM (active); in the assay on UACC-257, 0.526 µM (active); with MCF7, 0.845 µM (active); in the assay on DU-145 it was 0.671 µM (active); with 786-0, 2.24 µM (inactive); with Malme-3M it was 1.38 µM (inactive). Besides, the GI50 with UACC-62 was 0.724 µM (active); in the assay with COLO 205, 0.759 µM (active).

Turning to `Cc1nc(N)nc(N)c1N1CCN(Cc2ccccc2)CC1`, the GI50 in the assay on SF-539 was 27.2 µM (inactive); with SW-620 it was 38.9 µM (inactive); in the assay with LOX IMVI, 8.15 µM (inactive); with SF-295, 7.06 µM (inactive); in the assay with MDA-MB-435 it was 11.4 µM (inactive); with SNB-19 it was 55.5 µM (inactive). Besides, the GI50 in the assay on NCI-H522 is 24.8 µM (inactive); with K562, 6.44 µM (inactive); with SNB-75 it was > 52.5 µM (inactive); with Hs-578T, 48 µM (inactive); in the assay with EKVX, > 53.6 µM (inactive); in the assay on OVCAR-8 it was 14.9 µM (inactive). The GI50 in the assay with SK-OV-3 was > 55.1 µM (inactive); with UACC-257, 9.64 µM (inactive); in the assay on MCF7 it was 27.1 µM (inactive); in the assay on DU-145, 37.2 µM (inactive); in the assay on 786-0 it was 4.73 µM (inactive); with Malme-3M, 14.2 µM (inactive). Further, the GI50 with UACC-62 is 30.5 µM (inactive); in the assay on COLO 205, 31.8 µM (inactive).

As to `COC(=O)C1=C(C(=O)OC)SC(=C2SCSC3=C2SC(C(=O)OC)=C(C(=O)OC)C32SC3=C(CCCC3)S2)S1`, the GI50 with SF-539 was 44.5 µM (inactive); in the assay with SW-620, > 100 µM (inactive); with LOX IMVI it was > 100 µM (inactive); with SF-295 it was 83.9 µM (inactive); with MDA-MB-435 it was > 100 µM (inactive); in the assay on SNB-19 it was 55.7 µM (inactive). For the same compound, the GI50 with NCI-H522 was > 100 µM (inactive); with K562, > 100 µM (inactive); with SNB-75, 13.9 µM (inactive); in the assay on Hs-578T it was > 100 µM (inactive); in the assay on EKVX it was > 100 µM (inactive); with OVCAR-8, > 100 µM (inactive). The GI50 with SK-OV-3 was > 100 µM (inactive); with UACC-257 it was > 100 µM (inactive); in the assay with MCF7, > 100 µM (inactive); in the assay on DU-145 it was > 100 µM (inactive); in the assay with 786-0 it was 74.1 µM (inactive); in the assay with Malme-3M it was > 100 µM (inactive). The GI50 in the assay on UACC-62 and with COLO 205 was > 100 µM (inactive) each time.
